Assay results: patent US8088395B2, “Phytol derived immunoadjuvants and their use in vaccine formulations” (priority 2004, dated 2012)

Key:
BALB/c mice [1] = assay: Toxicity (LD50) after intraperitoneal injection; assay type: in vivo; details: mg/ml injected vaccine formulation
Method: (§1) The efficacy and side effects (such as toxicity, carcinogenic properties, and autoimmunogenic properties) of phytol and reduced phytol or phytanol (H-phytol) as adjuvants were compared with those of other known adjuvants that serve as the gold standard. Groups of 8-12 week old and gender matched BALB/c mice (n=21) were injected intraperitoneally with phytol (25-50 μl=20-40 mg/ml injected vaccine formulation) to determine toxicity. Similar studies were done with reduced phytol (phytanol) using 11 BALB/c mice. LD50 for phytol is 40 mg/ml and for phytanol >40 mg/ml. For comparison, equivalent concentrations/volumes of other Freund's adjuvants, a mineral oil pristane and a control (phosphate buffered saline) were tested for toxicity in terms of splenomegaly and local granuloma.

DNA = assay: Autoimmune reactivity assessment (anti-DNA antibody response); assay type: in vivo, mice
From the text: In each set of experiments, groups of 5 mice were primed with an environmental antigen phthalate (Lim and Ghosh, Immunology, 110:482-492, 2003) as a conjugate (mg/ml) with keyhole limpet hemocyanin (KLH) in different adjuvants as shown in FIG. 5.

2C3 B-cell lymphoma = assay: Induction of tumor-specific cytotoxic T cells (51Cr-release CTL assay); assay type: in vivo; details: BALB/c mice, intraperitoneal adjuvant, live 2C3 tumor challenge, FIG. 8
Method: A number of mice (BALB/c mice) were divided into four groups of six mice each. Each group was treated with intraperitoneal injections of one of […] adjuvant preparations. The adjuvant preparations were selected from IFA, phytol, and phytanol. A control group was injected intraperitoneally with PBS. Five days after the initial injections, each of the mice was injected with a live tumor challenge (5×10^6 of 2C3 B-cell lymphoma). Splenocytes were obtained form the tumor-challenged mice at the eighth day after the initial injections. The collected splenocytes were stimulated with killed 2C3 cells in vitro for five days. Effector cells were harvested from this preparation after five days of incubation. The effector cells were used in the 51Cr-release cytotoxic T lymphocyte (CTL) assay according to the procedure published in Chakrabarti D. and Ghosh S. K.: Cellular Immunology 144:445-464, 1996; Santra S. and Ghosh S. K.: cancer Immunol. Immunotherpy, 44:291-300, 1997; Laxmanan S., Stuart G. W. and Ghosh S. K. Ghosh, Cancer Immunol. Immunotherapy, 50:437-444, 2001; So-Yon Lim and Swapan K. Ghosh, Immunology, 110:482-492, 2003.

BALB/c mice [2] = assay: Toxicity in terms of splenomegaly and local granuloma; assay type: in vivo
Method: with adjuvants: A, (PBS); B, […]; C, Incomplete Freund's adjuvant (IFA); D, phytol; E, Complete Freund's adjuvant (CFA); and F, reduced phytol (phytanol).
as §1, with “[…].” for “LD50 for phytol is 40 mg/ml and for phytanol >40 mg/ml. For comparison, equivalent concentrations/volumes of other Freund's adjuvants, a mineral oil pristane and a control (phosphate buffered saline) were tested for toxicity in terms of splenomegaly and local granuloma.”

phthalate = assay: Anti-phthalate antibody response by ELISA on phthalate-BSA coated plates; assay type: in vivo; details: BALB/c mice primed intraperitoneally with phthalate-KLH emulsified in adjuvant, boosters at 10-day intervals, FIG. 6
Method: Experimental BALB/c mice (n=6) were grouped and primed intraperitoneally with phthalate-KLH conjugates emulsified in each adjuvant. Control groups of mice were immunized with phosphate buffered saline (PBS). Boosters were given at 10-day intervals. The mice were bled through retro-orbital veins five days after each immunization. (reference describing this type of experiments: So-Yon Lim and Swapan K. Ghosh, Immunology, 110:482-492, 2003)
ELISA was performed to assess anti-phthalate humoral responses on phthalate-BSA coated plates.

SMILES	LD50 (BALB/c mice [1]) [mg/mL]	anti-DNA response (autoimmune response) (DNA; mouse, in vivo)	induction of tumor-specific killer T cells (2C3 B-cell lymphoma)	granuloma (BALB/c mice [2]; mouse, in vivo)	splenomegaly (BALB/c mice [2]; mouse, in vivo)	anti-phthalate humoral response (phthalate)	anti-DNA response (autoimmune response) (DNA; mice primed with phthalate-KLH in the adjuvant, FIG. 5)	granuloma (BALB/c mice [2]; BALB/c mice, local granuloma)	splenomegaly (BALB/c mice [2]; BALB/c mice, spleens, FIGS. 3A-3F)	splenomegaly (BALB/c mice [2]; BALB/c mice, spleens, FIGS. 3A-3F, listed as Phytol)
CC(C)CCC[C@@H](C)CCC[C@@H](C)CCCC(C)CCO (stereo partly drawn) [phytanol, 3,7,11,15-tetramethyl-1-hexadecanol]	> 40	statistically insignificant anti-DNA response	induction of tumor-specific killer T cells	no granuloma	none	better than commonly used CFA/IFA and is as good as commercially available Ribi Adjuvant system (RAS)				
C/C(=C\CO)CCC[C@H](C)CCC[C@H](C)CCCC(C)C [phytol]	40		induction of tumor-specific killer T cells				statistically insignificant anti-DNA response	milder than CFA	comparable splenomegaly	milder than CFA
